The values that follow come from US12636368B2, “Ionizable lipids for nucleic acid delivery” (Global Life Sciences Solutions Canada ULC, priority 2019, dated 2026).

The nature of series [1]: Nucleic acid encapsulation efficiency by RiboGreen assay. Type of series: physicochemical.
Series [2] has as its system isolated primary human T cells. Put plainly: GFP mRNA-LNP transfection of primary human T cells, flow cytometry. Type of series: cell-based. The note with it: for amount of protein produced (MFI) in human T cells compared with MC3: summary; for protein expression (GFP MFI) compared with MC3: FIG. 5, CT10, N/P 8, 500 ng mRNA per 125,000 cells, 3 days after activation, 48 h. The method in brief: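 Negatively selected primary human T cells, dosed with GFP mRNA-LNPs either fresh at 2 μg mRNA per 500,000 cells (40:20:37.5:2.5 mol% ionizable lipid/DSPC/cholesterol/BRIJ S10, N/P 10) or post-activation at 500 ng per 125,000 cells (CT10, N/P 8). After 48 h, flow cytometry with viability and CD4/CD8/CD25 staining read GFP MFI and transfection efficiency.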

Another series deals with primary human T cells. Put plainly: EPO ELISA after EPO mRNA LNP treatment of primary human T cells. Type of series: cell-based. Here is the method: Reagents were acquired from Quantikine, Minneapolis, MN. The assay was performed as directed on the Quantikine® IVD® ELISA Human Erythropoietin Immunoassay protocol. REF DEP00 Package Insert. Briefly; primary human T cells were isolated from fresh whole blood using a negative selection protocol and activated using a triple activator. Seven days post-activation, T cells were dosed with mRNA LNPs encoding EPO at 2 pg mRNA per 500,000 cells and N/P 10. Quantikine® Human Serum Controls were used. After 48 hours of treatment with mRNA LNPs the T cells were harvested and lysed for cytosolic EPO and media supernatant was sampled for secreted EPO. Table 5 includes the data of FIG. 6 as well as the fold increase of EPO for PNI 76 and 121 versus MC3.

For series [3], the system named is isolated primary human T cells. Briefly: CD19 CAR expression in primary human T cells by mRNA-LNPs. The note with it: FIG. 11; CT10, N/P 8, 48 h. Format: cell-based. Here is the method: MRNA containing IL with CT10 composition at N/P 8 was assayed after in vitro exposure. The CAR vector pcDNA3.1 anti-CD19-h(BB Lambda)-EGFP-2nd-CAR (T7 Mut) 7661 bp was purchased from Creative BioLabs, NY, USA.
T cells were isolated from whole blood using a negative isolation procedure and T cell activation, and expansion was carried out by triple activation in ImmunoCult™ Human T Cell Expansion Media as described supra.

[4] abbreviates: Table 6, GFP-encoded LNPs, CT10, N/P 8.
[5] abbreviates: Table 7, EPO mRNA LNPs, LM02, N/P 6.

Take `CCCCC/C=C\C/C=C\CCCCCCCC(=O)O[C@@H]1[C@@H](OC(=O)CCCCCCC/C=C\C/C=C\CCCCC)CO[C@@H]1COC(=O)CCCN(C)C` (racemic) [PNI 121]: the “Encapsulation Efficiency (%)” value in series [1] (setting [4]) is on record as 87.3%; in series [1] (setting [5]) it was 98.8%. Besides, the “transfection efficiency compared with MC3” value in series [2] (FIG. 1, eGFP mRNA LNP, CT10, N/P 10, 48 hours after treatment) is on record as “greater than MC3”. Further, the “transfection efficiency compared with MC3 in various donors” value in series [2] (FIG. 2, six donors, treated 7 days post activation, 48 hours) is recorded as “greater than those containing clinically validated MC3”. Besides, in series [2] (six-donor experiment, not shown), the “viability of T cells compared to untreated cells” value is on record as “unaffected”. Also, the “amount of protein produced (MFI) in human T cells compared with MC3” value (from here on “amount … in human T cells compared with MC3”) in series [2] was “better than MC3”. Further, the “EPO expression compared with MC3” value in the series on primary human T cells (FIG. 6, N/P 10, 48 hours) is recorded as “higher than those containing MC3”. The “EPO Fold Change Relative to MC3” value in the series on primary human T cells (Table 5) is 1.86. Also, the “EPO concentration (mIU/mL)” value in the series on primary human T cells (Table 5, EPO mRNA LNPs, 2 pg mRNA per 500,000 cells, N/P 10, 48 hours) is 1009.0 mIU/mL.

Take `CCCCC/C=C\C/C=C\CCCCCCCC(=O)O[C@@H]1[C@@H](OC(=O)CCCCCCC/C=C\C/C=C\CCCCC)CO[C@@H]1COC(=O)C1CCN(C)C1` (mixture of isomers) [PNI 328]: in series [1] (setting [4]), the “Encapsulation Efficiency (%)” value was 92.5%. The “Encapsulation Efficiency (%)” value in series [1] (setting [5]) is listed as 96.2%. In series [2], the “protein expression (GFP MFI) compared with MC3” value is reported as “higher levels of protein expression than MC3” and the “amount … in human T cells compared with MC3” value is on record as “better than MC3”. For the same compound, the “CD19 CAR expression compared with PBS” value in series [3] is given as “greater than PBS”.

With `CCCCC/C=C\C/C=C\CCCCCCCC(=O)O[C@@H]1[C@@H](OC(=O)CCCCCCC/C=C\C/C=C\CCCCC)CO[C@@H]1COC(=O)C1(C)CCN(C)C1` (mixture of isomers) [PNI 329], the “Encapsulation Efficiency (%)” value in series [1] (setting [4]) worked out at 93.2%. Further, in series [1] (setting [5]), the “Encapsulation Efficiency (%)” value is given as 94.4%. Moreover, in series [2], the “amount of protein produced (MFIs) compared with MC3” value was “better than MC3”, the “protein expression (GFP MFI) compared with MC3” value was “higher levels of protein expression than MC3” and the “amount … in human T cells compared with MC3” value is recorded as “better than MC3”. Besides, the “CD19 CAR expression compared with PBS” value in series [3] is “greater than PBS”.

On to `CCCCC/C=C\C/C=C\CCCCCCCC(=O)O[C@@H]1[C@@H](OC(=O)CCCCCCC/C=C\C/C=C\CCCCC)CO[C@@H]1COC(=O)CCCN1CCCC1` (racemic) [PNI 539], for which, in series [1] (setting [5]), the “Encapsulation Efficiency (%)” value was determined as 88.2%.
